Measured values published in paper PMC3199867, “Targeting surface nucleolin with multivalent HB-19 and related Nucant pseudopeptides results in distinct inhibitory mechanisms depending on the malignant tumor cell type” (BMC Cancer, 2011).

Key:
[1] = test system: MMP-9; assay: mRNA expression by RT-PCR in SW620 cells; format: cell-based, human; details: SW620, 10 μM, 24 hours post-seeding
Procedure: (§1) SW620 cells were cultured in the absence or presence of N7 before extraction for total RNA using RNeasy Mini Kit (Qiagen) according to the manufacturer's instructions. RT was carried out with oligo(dT) and 2-4 μg of total RNA using Superscript II Reverse Transcriptase (Invitrogen). PCR was performed in a RoboCycler 96 (Stratagene, La Jolla, CA, USA) with specific primers for human nucleolin (referred to as NCL) 5'-[…]-3' and 5'-[…]-3' (835 bp); glyceraldehyde-3-phosphate dehydrogenase (GAPDH) 5'-TGAAGG-[…]-3' and 5'-[…]-CCAC-3' (983 bp); nucleophosmin (NPM or B23) 5'-[…]-3' and 5'-[…]-3' (320 bp); matrix metalloproteinase-2 (MMP-2) 5'-[…]-3' and 5'-[…]-3' (580 bp); matrix metalloproteinase-9 (MMP-9) 5'-[…] TCAGAGC-3' and 5'-[…]-3' (243 bp); tissue inhibitor of metalloproteinase 1 (TIMP-1) 5'-[…]-3' and 5'-[…]-3' (667 bp); tissue inhibitor of metalloproteinase 2 (TIMP-2) 5'-[…]-3' and 5'-[…]-3' (405 bp). PCR amplification conditions were: 95°C for 5 min, 30 cycles at 95°C for 30 sec, 60°C for 30 sec and 72°C for 45 sec, and 72°C for 5 min (for NCL and GAPDH), 95°C for 5 min, 30 cycles at 95°C for 30 sec, 53°C for 30 sec and 72°C for 30 sec, and 72°C for 5 min (for NPM); 95°C for 5 min, 35 cycles at 95°C for 45 sec, 56°C for 45 sec and 72°C for 45 sec, and 72°C for 5 min (for MMP2 and MMP9); 95°C for 5 min, 30 cycles at 95°C for 45 sec, 59°C for 1 min and 72°C for 1 min 30 sec, and 72°C for 5 min (for TIMP1 and TIMP2).
(§2) Figure 6 Selective down regulation of MMP-9 and nucleolin transcripts in Nucant treated SW620 cells. A. SW620 cells in the absence (lanes -) and presence (lanes +) of 10 μM of N7 were cultured for 24, 48, and 72 hours. B. Dose dependent reduction of MMP-9 and nucleolin transcripts in response to Nucant treatment. Newly seeded SW620 cells were cultured in the absence (lanes 1) and presence of 2.5 (lanes 2), 5 (lanes 3) and 10 (lanes 4) […] of N6 for 20 hours. Total RNA extracts were prepared at different time points and the expression of various transcripts was analyzed by RT-PCR using specific primers (Methods). […]

[2] = test system: nucleolin; assay: mRNA expression by RT-PCR in SW620 cells; format: cell-based, human; details: SW620, 10 μM, 24, 48 and 72 hours
Procedure: as §1, §2

[3] = test system: nucleophosmin; assay: mRNA expression by RT-PCR in SW620 cells; format: cell-based, human; details: SW620, 10 μM, 24, 48 and 72 hours
Procedure: as §1, §2

[4] = test system: melanoma TIII cell; assay: Cell adhesion; format: cell-based, murine; details: after 5 hours of cell seeding, vs untreated control, mean of at least 2 independent experiments
[5] = test system: T29 cells; assay: Internucleosomal DNA fragmentation (low molecular weight DNA of nucleoplasm, agarose gel); format: cell-based, murine; details: T29 cells, 2.5, 5, 10, and 20 μM, 24 hours
Text: Extraction of nuclei in buffer I (prepared as above) from viable cells results in the recovery of chromatin-free nucleoplasm. However, during cell death when DNA fragmentation occurs, the low molecular weight DNA fragments are recovered in the nucleoplasm. Consequently, supernatant of nuclear extracts from cells undergoing programmed cell death contain low molecular weight DNA fragments, whereas the pellet of the nuclear extracts contain the high molecular weight chromatin. By this experimental approach, DNA fragmentation could be analyzed without interference of the bulky DNA [51]. […] The DNA pellet was resuspended in electrophoresis buffer (10 mM Tris-HCI, pH 8.0, 1 mM EDTA) and analyzed by electrophoresis on 1.5% agarose gels containing […] ethydium bromide.
Figure 7 HB-19 and related multivalent Nucant pseudopeptides induce cell death associated with internucleosomal DNA fragmentation. […] Cell cultures (in triplicate) were monitored for viable cell number daily for 3 days. […] T29 cells seeded at 100,000/ml in 2 ml in the absence (0 μM) or presence of N7 at various concentrations 2.5, 5, 10 and 20 μM were cultured for 3 days and the number of viable cells was determined at day 1, 2, and 3 post-seeding. […] The nuclear extracts were analyzed by immunoblotting using anti-Nt Ab (Methods). […]

| Substance | expression of MMP-9 transcripts [1] | transcripts coding nucleolin [2] | expression of transcripts coding nucleophosmin [3] | % Inhibition of cell Adhesion ([4]; 2.5 μM) [%] | % Inhibition of cell Adhesion ([4]; 5 μM) [%] | % Inhibition of cell Adhesion ([4]; 10 μM) [%] | % Inhibition of cell Adhesion ([4]; 20 μM) [%] | DNA fragmentation [5] |
| --- | --- | --- | --- | --- | --- | --- | --- | --- |
| Ac-KAKPGKAKPGKAKPG-NH2 [Nucant N7, Presents hexavalently the pseudo-tripeptide Lysψ(CH2N)-Pro-Arg coupled to a similar template as in HB-19] | completely abolished | marked down regulation | not affected | – | – | – | – | – |
| Ac-Lys-Aib-Gly-Lys-Aib-Gly-Lys-Aib-Gly-Lys-Aib-Gly-Lys-Aib-Gly-Lys-Aib-Gly-CONH2 [Nucant N6, Presents hexavalently the pseudo-tripeptide Lysψ(CH2N)-Pro-Arg coupled to the polypeptide template containing Aib] | – | – | – | 15 | 26 | 38 | 55 | Internucleosomal DNA cleavage |
